In patent US8530663B2, “1-(2-phenoxymethylheteroaryl)piperidine and piperazine compounds” (Theravance, Inc., priority 2010, dated 2013):
Marks after values point to notes of the source that are not given here.

Tests used:
hNET [1] = biological target: T1, hNET (Homo sapiens, UniProt P23975); experiment: hNET membrane radioligand binding assay (3H-nisoxetine); details: hNET membranes, 1.0 nM 3H-nisoxetine; for Ki: read-out: NET pKi (converted)
T1 construct: expressed in transfected cells; host or cells: HEK-293
Method: (§1) Membrane radioligand binding assays were used to measure inhibition of labeled ligand (^3H-citalopram or ^3H-nisoxetine or ^3H-WIN35428) binding to membranes prepared from cells expressing the respective human recombinant transporter (hSERT or hNET or hDAT) in order to determine the pKi values of test compounds at the transporters.
(§2) Recombinant human embryonic kidney (HEK-293) derived cell lines stably transfected with hSERT or hNET, respectively, were grown in DMEM medium supplemented with 10% dialyzed FBS (for hSERT) or FBS (for hNET), 100 μg/ml penicillin, 100 μg/ml streptomycin, 2 mM L-glutamine and 250 μg/ml of the aminoglycoside antibiotic G418, in a 5% CO2 humidified incubator at 37° C. When cultures reached 80% confluence, the cells were washed thoroughly in PBS (without Ca^2+ and Mg^2+) and lifted with 5 mM EDTA in PBS. Cells were pelleted by centrifugation, resuspended in lysis buffer (10 mM Tris-HCl, pH7.5 containing 1 mM EDTA), homogenized, pelleted by centrifugation, then resuspended in 50 mM Tris-HCl, pH 7.5 and 10% sucrose at 4° C. Protein concentration of the membrane suspension was determined using a Bio-Rad Bradford Protein Assay kit. Membranes were snap frozen and stored at −80° C. Chinese hamster ovary membranes expressing hDAT (CHO-DAT) were purchased from PerkinElmer and stored at −80° C.
(§3) Binding assays were performed in a 96-well assay plate in a total volume of 200 μL assay buffer (50 mM Tris-HCl, 120 mM NaCl, 5 mM KCl, pH 7.4) with 0.5, 1, and 3 μg membrane protein, for SERT, NET and DAT, respectively.
(§4) Stock solutions (10 mM in DMSO) of test compound were prepared and serial dilutions made using Dilution Buffer (50 mM Tris-HCl, 120 mM NaCl, 5 mM KCl, pH 7.4, 0.1% BSA, 400 μM ascorbic acid).
(§5) Following a 60 minute incubation at 22° C. (or a period sufficient to reach equilibrium), the membranes were harvested by rapid filtration over a 96-well UniFilter GF/B plate, pretreated with 0.3% polyethyleneimine, and washed 6 times with 300 μl wash buffer (50 mM Tris-HCl, 0.9% NaCl, pH 7.5 at 4° C.). Plates were dried overnight at room temperature, ˜45 μl of MicroScint™-20 (Perkin Elmer) added and bound radioactivity quantitated via liquid scintillation spectroscopy. Inhibition curves and saturation isotherms were analyzed using GraphPad Prism Software package (GraphPad Software, Inc., San Diego, Calif.). IC50 values were generated from concentration response curves using the Sigmoidal Dose Response (variable slope) algorithm in Prism GraphPad. Kd and Bmax values for the radioligand were generated from saturation isotherms using the Saturation Binding Global Fit algorithm in Prism GraphPad. pKi (negative decadic logarithm of Ki) values for test compounds were calculated from the best-fit IC50 values, and the Kd value of the radioligand, using the Cheng-Prusoff equation (Cheng & Prusoff (1973) Biochem. Pharmacol. 22(23):3099-3108): Ki=IC50/(1+[L]/Kd), where [L]=concentration radioligand.

hNET [2] = biological target: T1, hNET; experiment: hNET neurotransmitter uptake assay (3H-NE); type: cell-based; details: norepinephrine reuptake inhibition, 3H-NE uptake, HEK-293 hNET cells (no asterisk); for IC50: read-out: NET pIC50 (converted)
Method: (§6) Neurotransmitter uptake assays were used to measure inhibition of ^3H-serotonin (^3H-5-HT), ^3H-norepinephrine (^3H-NE), and ^3H-dopamine (^3H-DA) uptake into cells expressing the respective transporter (hSERT, hNET or hDAT) in order to determine the pIC50 values of test compounds at the transporters.
(§7) HEK-293 derived cell lines stably-transfected with hSERT, hNET, or hDAT, respectively, were grown in DMEM medium supplemented with 10% dialyzed FBS (for hSERT) or FBS (for hNET and hDAT), 100 μg/ml penicillin, 100 μg/ml streptomycin, 2 mM L-glutamine and 250 μg/ml of the aminoglycoside antibiotic G418 (for hSERT and hNET) or 800 ug/ml (for hDAT), in a 5% CO2 humidified incubator at 37° C. When cultures reached 80% confluence, the cells were washed thoroughly in PBS (without Ca^2+ and Mg^2+) and lifted with 5 mM EDTA in PBS. Cells were harvested by centrifugation at 1100 rpm for 5 minutes, washed once by resuspension in PBS, then centrifuged. The supernatant was discarded and the cell pellet resuspended, by gentle trituration, in room temperature Krebs-Ringer bicarbonate buffer containing HEPES (10 mM), CaCl2 (2.2 mM), ascorbic acid (200 μM) and pargyline (200 μM), pH 7.4. The final concentration of cells in the cell suspension was 7.5×10^4 cells/ml, 1.25×10^5 cells/ml, and 5.0×10^4 cells/ml for SERT, NET, and DAT cell lines, respectively.
(§8) Stock solutions (10 mM in DMSO) of test compound were prepared and serial dilutions prepared using 50 mM Tris-HCl, 120 mM NaCl, 5 mM KCl, pH 7.4, 0.1% BSA, 400 μM ascorbic acid. Test compounds were incubated for 30 minutes at 37° C. with the respective cells, prior to addition of radiolabeled neurotransmitter, ^3H-5-HT (20 nM final concentration), ^3H-NE (50 nM final concentration), or ^3H-DA (100 nM final concentration).
(§9) Following a 10 minute incubation, at 37° C., with radioligand, the cells were harvested by rapid filtration over a 96-well UniFilter GF/B plate, pretreated with 1% BSA, and washed 6 times with 650 μl wash buffer (ice cold PBS). Plates were dried overnight at 37° C., ˜45 μl of MicroScint™-20 (Perkin Elmer) added and incorporated radioactivity quantitated via liquid scintillation spectroscopy. Inhibition curves were analyzed using GraphPad Prism Software package (GraphPad Software, Inc., San Diego, Calif.). IC50 values were generated from concentration response curves using the Sigmoidal Dose Response (variable slope) algorithm in Prism GraphPad.

hSERT [3] = biological target: T2, hSERT (Homo sapiens, UniProt P31645); experiment: hSERT neurotransmitter uptake assay (3H-5-HT); type: cell-based; details: serotonin reuptake inhibition, 3H-5-HT uptake, HEK-293 hSERT cells (no asterisk); for IC50: read-out: SERT pIC50 (converted)
T2 construct: expressed in transfected cells; host or cells: HEK-293
Method: as §6, §7, §8, §9

hSERT [4] = biological target: T2, hSERT; experiment: hSERT membrane radioligand binding assay (3H-citalopram); details: hSERT membranes, 1.0 nM 3H-citalopram; for Ki: read-out: SERT pKi (converted)
Method: as §1, §2, §3, §4, §5

hSERT [5] = biological target: T2, hSERT; experiment: fluorescence-based serotonin reuptake assay (Tsuruda et al. 2010; data with asterisk); type: cell-based; details: serotonin reuptake inhibition, fluorescence-based assay (data indicated by an asterisk)
hNET [6] = biological target: T1, hNET; experiment: fluorescence-based norepinephrine reuptake assay (Tsuruda et al. 2010; data with asterisk); type: cell-based; details: norepinephrine reuptake inhibition, fluorescence-based assay (data indicated by an asterisk)

T1 sequence (P23975 whole entry): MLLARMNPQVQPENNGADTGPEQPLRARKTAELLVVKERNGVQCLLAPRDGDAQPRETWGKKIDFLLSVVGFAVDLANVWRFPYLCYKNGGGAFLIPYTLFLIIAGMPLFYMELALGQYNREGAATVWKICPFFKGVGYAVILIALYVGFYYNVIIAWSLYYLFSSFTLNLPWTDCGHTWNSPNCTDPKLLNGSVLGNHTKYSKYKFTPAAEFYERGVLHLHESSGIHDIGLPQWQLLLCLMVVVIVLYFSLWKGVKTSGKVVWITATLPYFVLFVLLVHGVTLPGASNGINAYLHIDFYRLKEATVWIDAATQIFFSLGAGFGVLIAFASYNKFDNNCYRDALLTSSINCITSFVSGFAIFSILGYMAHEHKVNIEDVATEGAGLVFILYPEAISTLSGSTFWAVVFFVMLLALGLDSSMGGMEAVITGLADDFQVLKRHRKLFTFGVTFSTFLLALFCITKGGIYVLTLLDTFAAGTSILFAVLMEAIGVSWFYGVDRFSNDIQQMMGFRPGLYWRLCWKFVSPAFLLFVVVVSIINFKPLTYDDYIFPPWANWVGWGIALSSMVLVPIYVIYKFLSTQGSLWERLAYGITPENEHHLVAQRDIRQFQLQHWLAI
T2 sequence (P31645 whole entry): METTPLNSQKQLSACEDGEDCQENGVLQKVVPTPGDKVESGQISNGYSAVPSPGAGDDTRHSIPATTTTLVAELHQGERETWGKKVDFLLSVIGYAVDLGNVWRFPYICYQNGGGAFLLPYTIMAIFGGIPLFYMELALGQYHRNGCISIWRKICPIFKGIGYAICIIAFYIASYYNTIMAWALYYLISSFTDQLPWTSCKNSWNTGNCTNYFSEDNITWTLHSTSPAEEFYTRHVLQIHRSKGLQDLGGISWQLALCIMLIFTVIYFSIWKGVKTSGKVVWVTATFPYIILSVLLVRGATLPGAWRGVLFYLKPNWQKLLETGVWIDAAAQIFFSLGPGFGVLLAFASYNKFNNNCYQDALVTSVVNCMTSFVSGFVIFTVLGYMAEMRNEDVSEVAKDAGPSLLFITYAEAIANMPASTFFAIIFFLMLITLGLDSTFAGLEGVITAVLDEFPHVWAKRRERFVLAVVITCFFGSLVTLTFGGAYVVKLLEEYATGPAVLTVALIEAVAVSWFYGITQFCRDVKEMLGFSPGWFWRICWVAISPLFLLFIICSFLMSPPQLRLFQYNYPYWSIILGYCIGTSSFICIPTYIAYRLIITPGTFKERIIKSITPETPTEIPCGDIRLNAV

Row | SMILES | NET pKi (hNET [1]) | SERT pKi (hSERT [4]) | Ki (hNET [1]) [nM] | IC50 (hNET [2]) [nM] | IC50 (hSERT [3]) [nM] | Ki (hSERT [4]) [nM] | also measured
1 | Fc1cc(F)c(OCc2cccnc2C2CCNCC2)c(F)c1 [Example 13, 3-(2,4,6-Trifluorophenoxymethyl)-1′,2′,3′,4′,5′,6′-hexahydro[2,4]bipyridinyl] | – | – | ≤ 100 | ≤ 100 | ≤ 100 | ≤ 100 | –
2 | Fc1cccc(F)c1OCc1cscc1C1CCNCC1 [Example 27, 4-[4-(2,6-Difluorophenoxymethyl)thiophen-3-yl]piperidine] | – | – | ≤ 100 | ≤ 100 | ≤ 100 | ≤ 100 | –
3 | Clc1cccc(OCc2sccc2C2CCNCC2)c1 [Example 24, 4-[2-(3-Chlorophenoxymethyl)thiophen-3-yl]piperidine] | – | – | ≤ 100 | – | – | ≤ 100 | IC50 (hSERT [5]; read-out: SERT pIC50 (converted)): ≤ 100 nM; IC50 (hNET [6]; read-out: NET pIC50 (converted)): ≤ 100 nM
4 | Clc1cccc(OCc2ccsc2C2CCNCC2)c1 [Example 31-2] | ≧7.0 | ≧7.0 | – | – | – | – | SERT pIC50 (hSERT [5]): ≧7.0*; NET pIC50 (hNET [6]): ≧7.0*
5 | Fc1cc(F)c(OCc2cscc2C2CCNCC2)c(F)c1 [Example 28-3] | ≧7.0 | ≧7.0 | – | – | – | – | NET pIC50 (hNET [2]): ≧7.0; SERT pIC50 (hSERT [3]): ≧7.0

Continued, in another order:

Row | NET pKi (hNET [1]) | SERT pKi (hSERT [4]) | Ki (hNET [1]) [nM] | IC50 (hNET [2]) [nM] | IC50 (hSERT [3]) [nM] | Ki (hSERT [4]) [nM] | SMILES | also measured
6 | ≧7.0 | ≧7.0 | – | – | – | – | Fc1cccc(Cl)c1OCc1ccncc1C1CCNCC1 [Example 10-4] | NET pIC50 (hNET [2]): ≧7.0; SERT pIC50 (hSERT [3]): ≧7.0
7 | – | – | ≤ 100 | ≤ 100 | ≤ 100 | ≤ 100 | Fc1cc(F)c(OCc2ccncc2C2CCNCC2)c(F)c1 [Example 9, 4-(2,4,6-Trifluorophenoxymethyl)-1′,2′,3′,4′,5′,6′-hexahydro[3,4]bipyridinyl] | –
